Test results from patent publication US7999137B2, “Pesticide bi-phenyl-amidine derivatives” (Bayer Cropscience AG, priority 2006, dated 2011).

Assay: logP by HPLC on reversed-phase column (C 18), EEC Directive 79/831 Annex V.A8
Format: physicochemical
Conditions: HPLC reversed-phase C 18; 40° C.; 0.1% aqueous formic acid and acetonitrile, linear gradient 10% to 90% acetonitrile
Experimental: Temperature: 40° C.; Mobile phases: 0.1% aqueous formic acid and acetonitrile; linear gradient from 10% acetonitrile to 90% acetonitrile.
Calibration was carried out using unbranched alkan-2-ones (comprising 3 to 16 carbon atoms) with known logP values (determination of the logP values by the retention times using linear interpolation between two successive alkanones).

Point of comparison: CCc1cc(-c2ccc(F)c(F)c2)ccc1N=CN(C)CC [Compound 56], “log p (HCOOH)” value 2.00. Against it:
- CCN(C)C=Nc1ccc(-c2ccc(OC)c(OC)c2)cc1F [Compound 95] — lower, 1.41
- CCN(C)C=Nc1ccc(-c2ccc(OCc3ccccc3)cc2)cc1Cl [Compound 72] — higher, 2.48
- CCc1cc(-c2ccc(OC)cc2)ccc1N=CN(C)CC [Compound 58] — within 0.2 log units, 1.90
- CCN(C)C=Nc1cc(C)c(-c2ccc(OC(C)C)c(Cl)c2)cc1C [Compound 171] — higher, 2.62
- CCc1cc(-c2ccc(Cl)c(C(F)(F)F)c2)ccc1N=CN(C)CC [Compound 21] — higher, 2.39
- CCc1cc(-c2cc(OC)c(OC)c(OC)c2)ccc1N=CN(C)CC [Compound 50] — lower, 1.69
- CCN(C)C=Nc1ccc(-c2ccc(OCc3ccccc3)cc2)cc1C(F)(F)F [Compound 91] — higher, 2.43
- CCN(C)C=Nc1ccc(-c2ccc(OC)c(OC)c2)cc1C [Compound 38] — lower, 1.49
- CCN(C)C=Nc1cc(C)c(-c2ccc(OC(C)C)c(F)c2)cc1C [Compound 172] — higher, 2.37
- CCc1cc(-c2ccc(Cl)cc2Cl)ccc1N=CN(C)CC [Compound 57] — higher, 2.26
- Cc1cc(-c2ccc(F)cc2)c(C)cc1N=C1NCCCN1 [Compound 123] — within 0.2 log units, 1.81
- CCN(C)C=Nc1ccc(-c2ccc(COC)cc2)cc1C [Compound 37] — lower, 1.59
- CCN(C)C(C)=Nc1cc(C)c(-c2ccc(C(C)(C)C)cc2)cc1C [Compound 176] — higher, 2.77
- CCN(C)C=Nc1ccc(-c2ccc(OC)c(OC)c2OC)cc1C(F)(F)F [Compound 11] — within 0.2 log units, 1.84
- CCN(C)C=Nc1cc(C)c(-c2ccc(S(=O)(=O)N(C)C)cc2)cc1C [Compound 173] — lower, 1.76
- CCN(C)C=Nc1ccc(-c2cccc(Cl)c2)c(Cl)c1 [Compound 96] — within 0.2 log units, 1.92
- CCN(C)C=Nc1ccc(-c2ccc(Cl)c(C)c2)cc1Cl [Compound 110] — within 0.2 log units, 2.13
- CCN(C)C=Nc1cc(C)c(-c2ccc(Cl)c(F)c2)cc1C [Compound 41] — higher, 2.32
- CCN(C)C=Nc1ccc(-c2ccc(C=NOC)cc2)cc1C [Compound 30] — within 0.2 log units, 1.94
- CCN(C)C=Nc1ccc(-c2ccc(C(C)(C)C)cc2)cc1C(F)(F)F [Compound 2] — higher, 2.83
- CCN(C)C=Nc1cc(C)c(-c2ccc(Cl)c(C)c2)cc1C [Compound 109] — higher, 2.27
- CCN(C)C=Nc1ccc(-c2ccc(F)c(F)c2)cc1C(F)(F)F [Compound 83] — within 0.2 log units, 2.09
- CCN(C)C=Nc1cc(C)c(-c2ccc(C(C)(CC)OC)cc2)cc1C (stereo not shown) [Compound 159] — higher, 2.38
- CCN(C)C=Nc1ccc(-c2ccc(OC)cc2)cc1C(F)(F)F [Compound 87] — lower, 1.78
- CCCN(C)C=Nc1cc(C)c(-c2ccc(C(C)C)cc2)cc1C [Compound 156] — higher, 2.70
- COc1cc(-c2ccc(C)cc2)c(OC)cc1N=CN(C)C(C)C [Compound 103] — within 0.2 log units, 2.01
- CCc1cc(-c2ccc(COC)cc2)ccc1N=CN(C)CC [Compound 61] — lower, 1.67
- CCN(C)C=Nc1ccc(-c2ccc(Cl)c(C)c2)cc1C [Compound 108] — within 0.2 log units, 2.14
- CCN(C)C=Nc1ccc(-c2ccc(Oc3ccccc3)cc2)cc1F [Compound 90] — higher, 2.20
- CCN(C)C=Nc1ccc(-c2ccc(OC)c(OC)c2)cc1Cl [Compound 74] — lower, 1.54
- CCN(C)C=Nc1cc(C#N)c(-c2ccc(C(C)(C)C)cc2)cc1C [Compound 177] — higher, 2.21
- CCN(C)C=Nc1cc(C)c(-c2ccc(CC(C)C)cc2)cc1C [Compound 162] — higher, 2.84
- CCN(C)C=Nc1ccc(-c2ccc(Oc3ccccc3)cc2)cc1C(F)(F)F [Compound 89] — higher, 2.65
- CCN(C)C=Nc1cc(C)c(-c2ccc(C=NOC)cc2)cc1C [Compound 40] — within 0.2 log units, 2.05
- Cc1cc(-c2ccc(C(C)(C)C)cc2)c(C)cc1N=CN1CCCCC1 [Compound 116] — higher, 2.69
- CCN(C)C=Nc1cc(C)c(-c2ccc(F)c(C)c2)cc1C [Compound 45] — within 0.2 log units, 2.08
- CCN(C)C=Nc1ccc(-c2ccc(Cl)c(C(F)(F)F)c2)cc1C [Compound 16] — higher, 2.28
- CCN(C)C=Nc1cc(C)c(-c2ccc(C(C)(C)C)c(Cl)c2)cc1C [Compound 168] — higher, 2.85
- CCN(C)C=Nc1cc(C)c(-c2cccc(C(C)C)c2)cc1C [Compound 178] — higher, 2.42
- CCC(C)c1ccc(-c2cc(C)c(N=CN(C)CC)cc2C)cc1 (stereo not shown) [Compound 163] — higher, 2.92
- CCN(C)C=Nc1ccc(-c2ccc(Cl)c(Cl)c2)cc1C [Compound 32] — higher, 2.21
- Cc1cc(-c2ccc(C(C)(C)C)cc2)c(C)cc1N=CN1CCCCC1C (stereo not shown) [Compound 117] — higher, 3.02
- CCc1cc(-c2ccc(Oc3ccccc3)cc2)ccc1N=CN(C)CC [Compound 59] — higher, 2.32
- CCN(C)C=Nc1cc(C)c(-c2ccc(F)c(F)c2)cc1C [Compound 46] — within 0.2 log units, 1.98
- CC(C)N(C)C=Nc1ccc(-c2cccc(Cl)c2)c(Cl)c1 [Compound 101] — within 0.2 log units, 2.04
- CCN(C)C=Nc1cc(C)c(-c2ccc(Br)cc2)cc1C [Compound 175] — higher, 2.20
- CCON=C(C)c1ccc(-c2cc(C)c(N=CN3CCCCC3)cc2C)cc1 [Compound 141] — higher, 2.22
- CCN(C)C=Nc1ccc(-c2ccc(C(C)(C)C)cc2)cc1Cl [Compound 1] — higher, 2.44
- C=CCN(C)C=Nc1cc(C)c(-c2ccc(C)c(Cl)c2)cc1C [Compound 148] — higher, 2.48
- CCN(C)C=Nc1cc(C)c(-c2ccc(F)c(F)c2F)cc1C [Compound 43] — higher, 2.32
- CCN(C)C=Nc1ccc(-c2cc(OC)c(OC)c(OC)c2)cc1C(F)(F)F [Compound 75] — lower, 1.79
- CCN(C)C=Nc1ccc(-c2ccc(C(F)(F)F)cc2)cc1C(F)(F)F [Compound 25] — higher, 2.54
- Cc1cc(-c2ccc([Si](C)(C)C)cc2)c(C)cc1N=CN1CCCCC1 [Compound 154] — higher, 3.16
- CCN(C)C=Nc1ccc(-c2ccc(F)c(C)c2)cc1C [Compound 33] — within 0.2 log units, 2.04
- CCN(C)C=Nc1ccc(-c2ccc(F)c(F)c2)cc1F [Compound 84] — lower, 1.68
- CCN(C)C=Nc1cc(C)c(-c2ccc(OCc3ccccc3)cc2)cc1C [Compound 48] — higher, 2.55
- CCN(C)C=Nc1cc(C)c(-c2ccccc2)cc1C [Compound 134] — lower, 1.77
- CCc1cc(-c2ccc(OC)c(OC)c2)ccc1N=CN(C)CC [Compound 62] — lower, 1.68
- CCN(C)C=Nc1cc(C)c(-c2ccc(F)cc2)cc1C [Compound 22] — within 0.2 log units, 1.95
- CCN(C)C=Nc1ccc(-c2cc(OC)c(OC)c(OC)c2)cc1Cl [Compound 63] — lower, 1.58
- CCN(C)C=Nc1cc(C)c(-c2cccc([Si](C)(C)C)c2)cc1C [Compound 179] — higher, 3.00
- CCN(C)C=Nc1ccc(-c2ccc(Oc3ccccc3)cc2)cc1C [Compound 35] — higher, 2.41

Same assay, conditions: reversed-phase HPLC column (C 18); pH 2.3; HPLC, 0.1% aqueous formic acid and acetonitrile, 40° C.; read-out: log P (pH 2.3)

In the case of CCN(C)/C=N/c1cc(C)c(Br)cc1C [Intermediate (Va-1), N′-(4-bromo-2,5-dimethylphenyl)-N-ethyl-N-methylimidoformamide], the chromatographic logP was 1.36.
